Test results: patent US20260240876A1, “TREATMENT OF SLEEP APNEA WITH CBD” (Harmony Biosciences Management, Inc., priority 2021, published 2026)

System: child and adolescent patients with DEEs
Assay: BELIEVE: Sleep Disturbance Scale for Children (SDSC)
Assay type: in vivo, human
Details: Week 26, negative = improvement, vs revised Baseline mean of completers
Protocol: This was a sequential, multi-stage, open-label, multi-national, multiple-center, multiple-dose study to assess the long-term safety, tolerability, and efficacy of ZYN002 (transdermal CBD gel) in child and adolescent epilepsy patients from 3 to 18 years of age having seizures associated with developmental and epileptic encephalopathies (DEE) according to the International League Against Epilepsy (ILEA) classification (Scheffer et al. 2017). The study was conducted to evaluate efficacy of ZYN002 in DEE patients with ASD. The objective of the study also included evaluating the effects of ZYN002 transdermal CBD gel on QoL, sleep, and caregiver qualitative assessment in child and adolescent patients with DEEs.
• Change from baseline to the end of Period A in the SDSC

## C=C(C)C1CCC(C)=CC1c1c(O)cc(CCCCC)cc1O (stereo not shown) [CBD, 2-[3-methyl-6-(1-methylethenyl)-2-cyclohexen-1-yl]-5-pentyl-1,3-benzenediol]
All Patients (DEE)
  SDSC Sleep Breathing Disorders (SBD), Change from Baseline: no significant change
DEE Patients >70 Total Score
  SDSC Sleep Breathing Disorders (SBD), Change from Baseline: no significant change
DEE-ASD Patients >70 Total Score
  SDSC Sleep Breathing Disorders (SBD), Change from Baseline: −6.7
DEE-ASD Patients
  SDSC Sleep Breathing Disorders (SBD), Change from Baseline: −3.9
